The source of these data is ChEMBL document CHEMBL4342522 (J Med Chem, 2020).

The structures appear in SMILES notation. Where only a bound is given, the exact number is not on record here.

One data set concerns NCI-H1299. Nature of the data set: Antiproliferative activity against human H1299 cells assessed as reduction in cell viability after 5 days by CellTiter-Glo assay. As to conditions: NCI-H1299, 120 h. The class given is functional, cell-based. (In general: ATP-based viability assays read luminescence as a measure of living cells.)
Another data set deals with SKM-1. Nature of the data set: Antiproliferative activity against human SKM1 cells assessed as reduction in cell viability after 5 days by CellTiter-Glo assay. The class given is functional, cell-based. As to conditions: SKM-1, 120 h.
The nature of data set [1]: Unbound hepatic clearance in mouse liver microsomes. The format is ADME, Microsome. Background: Microsomes from liver hold many membrane-bound enzymes, among them those of drug oxidation.
The target of data set [2] is T1, Bromodomain-containing protein 4 (Homo sapiens, UniProt O60885). Briefly: Inhibition of human N-terminal His6 tagged BRD4 BD2 (352 to 457) residues expressed in Escherichia coli BL21(DE3) cells after 1 hr by TR-FRET assay. In general terms: TR-FRET usually uses a lanthanide donor and a delayed reading to cut background.
Data set [3] is described as follows: Unbound hepatic clearance in rat liver microsomes. The class given is ADME, Microsome.
For data set [4], the target named is T1, Bromodomain-containing protein 4. Briefly: biochemical. The class given is cell-based.
Description: Inhibition of human N-terminal His6 tagged BRD4 BD1 (57 to 168) residues expressed in Escherichia coli BL21(DE3) cells after 1 hr by TR-FRET assay
Data set [5] can be described thus: Permeability in dog MDCK cells by PAMPA. The format is ADME, cell-based, Canis lupus familiaris. As to conditions: read-out: permeability.
Data set [6] is described as follows: Unbound hepatic clearance in human liver microsomes. The class given is ADME, Microsome.

Consider `CCN(C)C(=O)c1cc2c(-c3cc(S(C)(=O)=O)ccc3Oc3ccc(F)cc3F)cn(C)c(=O)c2[nH]1`, for which the 50% inhibitory concentration (IC50) (as a rule, the concentration at which inhibition is half-maximal) in the data set with NCI-H1299 came out at 390 nM; in the data set on SKM-1 it was 56 nM. Also, the CL free was found to be 288 mL/min/kg in data set [1], 282 mL/min/kg in data set [3] and 63.3 mL/min/kg in data set [6]. The figures for the Ki in data set [2] and in data set [4] were 40 nM and 13 nM, respectively. Further, the Papp in data set [5] is 16 ×10⁻⁶ cm/s.

Turning to `CCNC(=O)c1cc2c(-c3cc(S(=O)(=O)CC)ccc3Oc3ccccc3Cl)cn(C)c(=O)c2[nH]1`, the IC50 was 340 nM with NCI-H1299 and 3.3 nM with SKM-1. Further, the CL free was 1200 mL/min/kg in data set [1], 1200 mL/min/kg in data set [3] and 200 mL/min/kg in data set [6]. Besides, the figures for the inhibitory constant (Ki) in data set [2] and in data set [4] were 0.5 nM and 6.5 nM, respectively. In addition, the Papp in data set [5] is 13.8 ×10⁻⁶ cm/s.

For `CNC(=O)c1cc2c(-c3cc(C(C)(C)O)ccc3Oc3c(C)cc(F)cc3C)cn(C)c(=O)c2[nH]1`, the IC50 with NCI-H1299 was determined as 1200 nM; in the data set with SKM-1 it was 13 nM. Besides, the CL free in data set [1] was 550 mL/min/kg; in data set [3], 167 mL/min/kg; in data set [6], 400 mL/min/kg. Moreover, the Ki – broadly, the dissociation constant of the complex between target and ligand, obtained from inhibition or displacement – in data set [2] is 1 nM; in data set [4] it was 140 nM. Moreover, the Papp in data set [5] amounted to 0.55 ×10⁻⁶ cm/s.

In the case of `Cn1cc(-c2cc(S(C)(=O)=O)ccc2Oc2ccc(F)cc2F)c2cc(C(N)=O)[nH]c2c1=O`, the half-inhibitory concentration (IC50) turned out to be 600 nM with NCI-H1299 and 10 nM in the data set on SKM-1. The CL free is below 120 mL/min/kg in data set [1], below 68.3 mL/min/kg in data set [3] and 76.7 mL/min/kg in data set [6]. Moreover, the inhibition constant Ki in data set [2] stood at 1.2 nM; in data set [4], 8.6 nM. The Papp in data set [5] came out at 2.4 ×10⁻⁶ cm/s.

In the case of `CCNC(=O)c1cc2c(-c3cc(S(=O)(=O)CC)ccc3-c3ccccc3C)cn(C)c(=O)c2[nH]1`, the IC50 in the data set with NCI-H1299 was 2600 nM; in the data set on SKM-1 it was 9.5 nM. Moreover, the results for the CL free in data set [1], in data set [3] and in data set [6] were 750 mL/min/kg, 350 mL/min/kg and 112 mL/min/kg, respectively. Also, the inhibition constant (Ki) came out at 1.1 nM in data set [2] and 180 nM in data set [4]. Further, the Papp in data set [5] was 10.3 ×10⁻⁶ cm/s.

In the case of `CCNC(=O)c1cc2c(-c3cc(NS(=O)(=O)CC)ccc3Oc3c(C)cccc3C)cn(C)c(=O)c2[nH]1`, the 50% inhibitory concentration (IC50) in the data set on NCI-H1299 was determined as 300 nM; in the data set on SKM-1, 1.7 nM. Also, the CL free in data set [1] was found to be 1320 mL/min/kg; in data set [3], 14700 mL/min/kg; in data set [6], 183 mL/min/kg. For the same molecule, the inhibitory constant (Ki) in data set [2] turned out to be 0.8 nM; in data set [4], 17 nM. Moreover, the Papp in data set [5] was determined as 0.22 ×10⁻⁶ cm/s.

For the molecule `CCNC(=O)c1cc2c(-c3cc(S(=O)(=O)CC)ccc3Oc3c(C)cccc3C(F)F)cn(C)c(=O)c2[nH]1`, the IC50 in the data set on NCI-H1299 turned out to be 880 nM; in the data set on SKM-1, 24 nM. For the same molecule, the CL free in data set [1] is 900 mL/min/kg; in data set [3], 200 mL/min/kg; in data set [6], 75 mL/min/kg. In addition, the Ki in data set [2] came to 2.1 nM; in data set [4] it was 160 nM. Also, the Papp in data set [5] turned out to be 15.2 ×10⁻⁶ cm/s.

For `Cc1cc(F)cc(C)c1Oc1ccc(C(C)(C)O)cc1-c1cn(C)c(=O)c2[nH]c(C(=O)NC3CC3)cc12`, the IC50 with NCI-H1299 came to 1900 nM; in the data set with SKM-1, 6.2 nM. The CL free in data set [1] came out at 3330 mL/min/kg; in data set [3], 333 mL/min/kg; in data set [6], 800 mL/min/kg. In addition, the Ki in data set [2] came out at 0.5 nM; in data set [4] it was 230 nM. Besides, the Papp in data set [5] was 1.13 ×10⁻⁶ cm/s.

On to `CCNC(=O)c1cc2c(-c3cc(S(=O)(=O)CC)ccc3-c3cccc4cc[nH]c34)cn(C)c(=O)c2[nH]1`, for which the half-inhibitory concentration (IC50) in the data set on NCI-H1299 worked out at 3900 nM; in the data set on SKM-1, 34 nM. The CL free in data set [1] was determined as 517 mL/min/kg; in data set [3], 233 mL/min/kg; in data set [6], 140 mL/min/kg. For the same molecule, the results for the Ki in data set [2] and in data set [4] were 0.9 nM and 170 nM, respectively. Also, in data set [5], the Papp was determined as 3.5 ×10⁻⁶ cm/s.

Consider `CCNC(=O)c1cc2c(-c3cc(S(=O)(=O)CC)ccc3Oc3c(C)cccc3Br)cn(C)c(=O)c2[nH]1`, for which the values for the IC50 in the data set on NCI-H1299 and in the data set with SKM-1 were 730 nM and 9.8 nM, respectively. The figures for the CL free in data set [1], in data set [3] and in data set [6] were 1880 mL/min/kg, 1350 mL/min/kg and 267 mL/min/kg, respectively. Moreover, the results for the Ki in data set [2] and in data set [4] were 1 nM and 45 nM, respectively. Further, the Papp in data set [5] came to 10.5 ×10⁻⁶ cm/s.

With `CCNC(=O)c1cc2c(-c3cc(NC(C)=O)ccc3Oc3c(C)cc(F)cc3C)cn(C)c(=O)c2[nH]1`, the half-maximal inhibitory concentration (IC50) in the data set on NCI-H1299 was determined as 1600 nM; in the data set with SKM-1, 14 nM. In addition, the values for the CL free in data set [1], in data set [3] and in data set [6] were 2330 mL/min/kg, 250 mL/min/kg and 183 mL/min/kg, respectively. Further, the results for the inhibitory constant (Ki) in data set [2] and in data set [4] were 1.1 nM and 90 nM, respectively. The Papp in data set [5] stood at 1.06 ×10⁻⁶ cm/s.

Regarding `CCNC(=O)c1cc2c(-c3cc(NC(C)=O)ccc3Oc3c(C)cccc3C)cn(C)c(=O)c2[nH]1`, the results for the IC50 in the data set with NCI-H1299 and in the data set with SKM-1 were 730 nM and 3.5 nM, respectively. For the same molecule, the values for the CL free in data set [1], in data set [3] and in data set [6] were 2000 mL/min/kg, 667 mL/min/kg and 83.3 mL/min/kg, respectively. Besides, the inhibition constant (Ki) in data set [2] was 0.5 nM; in data set [4] it was 76 nM. In data set [5], the Papp amounted to 1.96 ×10⁻⁶ cm/s.

Consider `CCNC(=O)c1cc2c(-c3cc(S(=O)(=O)CC)ccc3Oc3cc(C)cc(C)c3)cn(C)c(=O)c2[nH]1`, for which the half-inhibitory concentration (IC50) turned out to be 94 nM in the data set with NCI-H1299 and 2.6 nM with SKM-1. Also, the CL free in data set [1] was found to be 1600 mL/min/kg; in data set [3], 1620 mL/min/kg; in data set [6], 533 mL/min/kg. For the same molecule, the inhibition constant Ki in data set [2] was 0.7 nM; in data set [4], 8.3 nM. Moreover, the Papp in data set [5] came to 3.1 ×10⁻⁶ cm/s.

As to `CCNC(=O)c1cc2c(-c3cc(S(=O)(=O)C4CC4)ccc3Oc3c(C)cccc3C)cn(C)c(=O)c2[nH]1`, the IC50 is 730 nM in the data set on NCI-H1299 and 20 nM in the data set on SKM-1. Moreover, the CL free was 1720 mL/min/kg in data set [1], 1780 mL/min/kg in data set [3] and 300 mL/min/kg in data set [6]. Besides, the Ki in data set [2] amounted to 0.6 nM; in data set [4], 38 nM. The Papp in data set [5] was found to be 8.33 ×10⁻⁶ cm/s.

Turning to `CCNC(=O)c1cc2c(-c3cc(S(=O)(=O)CC)ccc3Oc3c(C)cc(F)cc3C)cn(C)c(=O)c2[nH]1`, the values for the IC50 with NCI-H1299 and with SKM-1 were 810 nM and 14 nM, respectively. For the same molecule, the CL free in data set [1] worked out at 917 mL/min/kg; in data set [3], 467 mL/min/kg; in data set [6], 167 mL/min/kg. For the same molecule, the values for the Ki in data set [2] and in data set [4] were 1.3 nM and 79 nM, respectively. Further, the Papp in data set [5] amounted to 6.12 ×10⁻⁶ cm/s.

As for `CCNC(=O)c1cc2c(-c3cc(C4(O)CCOCC4)ccc3Oc3c(C)cc(F)cc3C)cn(C)c(=O)c2[nH]1`, the IC50 amounted to 2100 nM with NCI-H1299 and 6.7 nM in the data set on SKM-1. In addition, the values for the CL free in data set [1], in data set [3] and in data set [6] were 1670 mL/min/kg, 817 mL/min/kg and 8670 mL/min/kg, respectively. Further, the results for the Ki in data set [2] and in data set [4] were 1.2 nM and 300 nM, respectively. The Papp in data set [5] was determined as 1.47 ×10⁻⁶ cm/s.

For `CCNC(=O)c1cc2c(-c3cc(S(=O)(=O)CC)ccc3Oc3c(C)cccc3C#N)cn(C)c(=O)c2[nH]1`, the IC50 with NCI-H1299 turned out to be 730 nM; with SKM-1 it was 37 nM. The CL free was found to be 817 mL/min/kg in data set [1], 1530 mL/min/kg in data set [3] and 683 mL/min/kg in data set [6]. The Ki in data set [2] stood at 3.2 nM; in data set [4] it was 69 nM. The Papp in data set [5] stood at 15.3 ×10⁻⁶ cm/s.

With `CCNC(=O)c1cc2c(-c3cc(S(C)(=O)=O)ccc3Oc3c(C)cccc3C)cn(C)c(=O)c2[nH]1`, the IC50 in the data set on NCI-H1299 is 790 nM; with SKM-1, 11 to 12 nM. The CL free in data set [1] stood at 550 mL/min/kg; in data set [3] it was 650 mL/min/kg; in data set [6], 91.7 mL/min/kg. Besides, the inhibition constant Ki in data set [2] was 1.2 nM; in data set [4] it was 140 nM. Also, the Papp in data set [5] worked out at 10.7 ×10⁻⁶ cm/s.
